# According to patent EP0801570B1, “FORMULATIONS AND METHODS FOR REDUCING SKIN IRRITATION” (COSMEDERM TECHNOLOGIES, priority 1994, dated 1996):
# Like-named read-outs stand apart in the source and are kept apart here.
# Experiments:
# [1] = system: lactic acid skin irritation
# Method: The majority of the trials were conducted using lactic acid as the skin irritant, and proceeded generally as follows.
# (§1) Tests were conducted in multiple panels of from 7 to 12 subjects each. Subjects were instructed not to wear any makeup or facial lotions to the clinic the day of testing. The subjects were instructed to wash their face with Ivory bar soap in the clinic prior to application of test solutions.
# Lactic acid skin-irritant compositions were formulated in an appropriate vehicle prior to application to the skin of the subjects.
# Controls were performed by applying corresponding formulation(s) (pretreatment and/or skin-irritant composition) with an equimolar amount of sodium chloride to a contralateral portion of the subject's skin. Typically, the test materials were applied to the face of the subject.
# All test solutions (including controls) were applied in a double blind, randomized fashion using the prepared solutions as previously placed in coded vial designated for use on either the right or left side of the face (or other test area). Solutions were typically applied using a cotton swab (six strokes) or sponge applicator to the face and cheek area extending from the midline of the nose over to the center of the cheek and from the cheek bone down to the jaw line. Application was made first to the right side and then to the left.
# The following scaled scores were used for sensory assessment:
# Symptom scores were cumulated, separately for the cation-treated and control-treated areas, for each individual and also for the panel as a whole.
# skin irritation = test: Human clinical trials of anti-irritant activity against topical skin irritants; assay type: in vivo, humans; settings: for anti-irritant activity: clinical trials
# Method: The objective of the clinical trials was to determine whether and to what extent topical formulations of the calcium cation reduced or prevented skin irritation caused by certain severe skin irritants, including particularly lactic acid and glycolic acid (which are hydroxy acids), capryloyl salicylic acid (a β-hydroxy acid ester) and capsaicin (an isolate from cayenne and paprika known for its skin-irritating properties). The trials were conducted in a double blind, randomized, vehicle-controlled manner. Various formulations of the invention were tested in over 460 people.
# as §1
# [2] = system: lactic acid skin irritation; test: Lactic acid irritation trial, pretreatment test (anti-irritant applied 15 minutes before the irritant); assay type: in vivo, humans; settings: for Percent Inhibition (average inhibition of cumulative irritation): cation salt at 250 mM, lactic acid irritant; for inhibit skin irritation: topical solutions in Elizabeth Arden Visible Difference Refining Toner, various amounts of salt
# From the text: (§2) The following scaled scores were used for sensory assessment: […]
# [3] = system: lactic acid skin irritation; test: Lactic acid irritation trial, time zero test (anti-irritant applied simultaneously with the irritant); assay type: in vivo, humans; settings: time zero tests; for inhibition at 250000 µM: Homo sapiens
# From the text: as §2
# [4] = pretreatment tests, representative panels, cation concentration 250 mM, vehicle VIS DIFFERENCE
# [5] = cation salt at 250 mM, lactic acid irritant
# [6] = representative panels, cation concentration 250 mM, vehicle 10% EtOH
compound,measurement,setting,value
O=[N+]([O-])[O-].O=[N+]([O-])[O-].[Ca+2] [Calcium nitrate],Percent Inhibition (cumulative irritation inhibition),[1]; concentration 31 mM,26%
same,Percent Inhibition (cumulative irritation inhibition),[1]; concentration 62 mM,52%
same,Percent Inhibition (cumulative irritation inhibition),[1]; concentration 125 mM,83%
same,Percent Inhibition (cumulative irritation inhibition),[1]; concentration 250 mM,82%
same,Percent Inhibition (cumulative irritation inhibition),[1]; concentration 500 mM,67%
same,anti-irritant activity,skin irritation,particularly active as anti-irritants
same,Percent Inhibition (average inhibition of cumulative irritation),[2]; pretreatment tests,45%
same,Percent Inhibition,[2]; [4],44%
same,inhibit skin irritation,[2],effective to inhibit skin irritation
same,Percent Inhibition (average inhibition of cumulative irritation),[3]; [5],90%
same,Percent Inhibition,[3]; [6],85%
CC(=O)[O-].CC(=O)[O-].[Ca+2] [Calcium acetate],anti-irritant activity,skin irritation,particularly active as anti-irritants
same,Percent Inhibition (average inhibition of cumulative irritation),[2]; pretreatment tests,40%
same,Percent Inhibition,[2]; [4],30%
same,inhibit skin irritation,[2],effective to inhibit skin irritation
same,Percent Inhibition (average inhibition of cumulative irritation),[3]; [5],60%
same,Percent Inhibition,[3]; [6],65%
[Ca+2].[Cl-].[Cl-] [Calcium chloride],anti-irritant activity,skin irritation,particularly active as anti-irritants
same,Percent Inhibition (average inhibition of cumulative irritation),[2]; pretreatment tests,35%
same,Percent Inhibition,[2]; [4],35%
same,inhibit skin irritation,[2],effective to inhibit skin irritation
same,Percent Inhibition (average inhibition of cumulative irritation),[3]; [5],65%
same,Percent Inhibition,[3]; [6],61%
O=C(O)[C@H](O)[C@@H](O)[C@H](O)[C@H](O)CO [Calcium gluconate],anti-irritant activity,skin irritation,particularly active as anti-irritants
same,inhibition at 250000 µM,"[2]; Homo sapiens, pretreatment tests, representative panels, cation concentration 250 mM, vehicle VIS DIFFERENCE, read-out: Percent Inhibition",40%
same,inhibition at 250000 µM,"[3]; cation salt at 250 mM, lactic acid irritant, read-out: Percent Inhibition (average inhibition of cumulative irritation)",40%
same,inhibition at 250000 µM,"[3]; representative panels, cation concentration 250 mM, vehicle 10% EtOH, read-out: Percent Inhibition",49%
[Ca+2] [calcium(II) (Ca^2+)],"suppress stinging, burning, tingling, itching and/or erythema","skin irritation; applied topically to the skin, irritants lactic acid, glycolic acid, capryloyl salicylic acid and benzoyl peroxide",effective
same,anti-irritant activity,skin irritation,significant and reproducible anti-irritant effects
